Experimental data published in patent US10023570B2 (Array BioPharma, Inc., priority 2015, dated 2018).
Read-outs that look alike come from different tables or passages of the source.

Columns and labels:
[1] = target: N-terminal GST tagged recombinant human RET cytoplasmic domain (aa 658-end), wild type RET kinase (Homo sapiens (Human), UniProt P07949); assay: RET Enzyme Assay (HTRF KinEASE-TK), wild type RET; assay type: biochemical; details: wild type RET, 1 mM ATP
[2] = target: Kif5b-RET fusion protein in HEK-293 cells (Homo sapiens, UniProt P07949); assay: cell-based; details: read-out: KIF5B-RET pTYR1062 Cell IC50
Kif5b-RET fusion protein in HEK-293 cells, sequence (P07949 29-1114 limits assumed): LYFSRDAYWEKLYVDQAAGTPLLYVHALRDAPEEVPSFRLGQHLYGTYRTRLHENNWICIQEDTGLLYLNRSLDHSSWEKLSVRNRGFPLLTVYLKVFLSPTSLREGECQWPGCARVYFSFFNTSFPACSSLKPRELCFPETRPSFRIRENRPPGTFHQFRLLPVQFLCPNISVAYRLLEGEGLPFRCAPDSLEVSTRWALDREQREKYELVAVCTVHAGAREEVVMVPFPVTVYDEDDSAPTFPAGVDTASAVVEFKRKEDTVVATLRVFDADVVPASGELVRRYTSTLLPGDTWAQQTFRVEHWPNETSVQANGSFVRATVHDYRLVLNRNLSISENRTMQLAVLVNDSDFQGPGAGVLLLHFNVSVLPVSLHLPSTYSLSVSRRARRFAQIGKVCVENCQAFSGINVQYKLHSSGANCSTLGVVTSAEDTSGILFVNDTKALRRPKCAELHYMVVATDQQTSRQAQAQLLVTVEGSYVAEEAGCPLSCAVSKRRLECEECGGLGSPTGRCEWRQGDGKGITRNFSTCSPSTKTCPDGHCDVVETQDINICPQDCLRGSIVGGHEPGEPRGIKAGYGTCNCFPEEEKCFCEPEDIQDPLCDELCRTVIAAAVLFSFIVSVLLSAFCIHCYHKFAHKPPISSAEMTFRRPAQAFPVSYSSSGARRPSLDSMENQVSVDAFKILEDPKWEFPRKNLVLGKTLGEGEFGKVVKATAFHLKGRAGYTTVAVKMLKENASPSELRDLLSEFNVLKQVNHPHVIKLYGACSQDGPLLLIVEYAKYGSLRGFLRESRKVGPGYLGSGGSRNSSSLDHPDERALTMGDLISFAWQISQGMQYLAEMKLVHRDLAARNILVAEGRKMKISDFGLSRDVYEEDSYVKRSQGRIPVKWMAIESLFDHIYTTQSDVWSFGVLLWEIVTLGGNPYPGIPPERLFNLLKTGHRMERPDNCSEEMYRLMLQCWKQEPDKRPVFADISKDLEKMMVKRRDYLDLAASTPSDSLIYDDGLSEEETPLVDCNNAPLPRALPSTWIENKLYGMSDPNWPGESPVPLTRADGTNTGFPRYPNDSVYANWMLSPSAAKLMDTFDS

[3] = target: human KDR protein in HEK-293 cells (Homo sapiens (Human), UniProt P35968); assay: KDR Cell Assay (phospho-KDR in HEK-293 cells expressing inducible KDR); assay type: cell-based; details: pKDR Cell HEK 10% FBS IC50, HEK-293 cells expressing inducible KDR, VEGF stimulated, 10% FBS
human KDR protein in HEK-293 cells, sequence (P35968 20-1356): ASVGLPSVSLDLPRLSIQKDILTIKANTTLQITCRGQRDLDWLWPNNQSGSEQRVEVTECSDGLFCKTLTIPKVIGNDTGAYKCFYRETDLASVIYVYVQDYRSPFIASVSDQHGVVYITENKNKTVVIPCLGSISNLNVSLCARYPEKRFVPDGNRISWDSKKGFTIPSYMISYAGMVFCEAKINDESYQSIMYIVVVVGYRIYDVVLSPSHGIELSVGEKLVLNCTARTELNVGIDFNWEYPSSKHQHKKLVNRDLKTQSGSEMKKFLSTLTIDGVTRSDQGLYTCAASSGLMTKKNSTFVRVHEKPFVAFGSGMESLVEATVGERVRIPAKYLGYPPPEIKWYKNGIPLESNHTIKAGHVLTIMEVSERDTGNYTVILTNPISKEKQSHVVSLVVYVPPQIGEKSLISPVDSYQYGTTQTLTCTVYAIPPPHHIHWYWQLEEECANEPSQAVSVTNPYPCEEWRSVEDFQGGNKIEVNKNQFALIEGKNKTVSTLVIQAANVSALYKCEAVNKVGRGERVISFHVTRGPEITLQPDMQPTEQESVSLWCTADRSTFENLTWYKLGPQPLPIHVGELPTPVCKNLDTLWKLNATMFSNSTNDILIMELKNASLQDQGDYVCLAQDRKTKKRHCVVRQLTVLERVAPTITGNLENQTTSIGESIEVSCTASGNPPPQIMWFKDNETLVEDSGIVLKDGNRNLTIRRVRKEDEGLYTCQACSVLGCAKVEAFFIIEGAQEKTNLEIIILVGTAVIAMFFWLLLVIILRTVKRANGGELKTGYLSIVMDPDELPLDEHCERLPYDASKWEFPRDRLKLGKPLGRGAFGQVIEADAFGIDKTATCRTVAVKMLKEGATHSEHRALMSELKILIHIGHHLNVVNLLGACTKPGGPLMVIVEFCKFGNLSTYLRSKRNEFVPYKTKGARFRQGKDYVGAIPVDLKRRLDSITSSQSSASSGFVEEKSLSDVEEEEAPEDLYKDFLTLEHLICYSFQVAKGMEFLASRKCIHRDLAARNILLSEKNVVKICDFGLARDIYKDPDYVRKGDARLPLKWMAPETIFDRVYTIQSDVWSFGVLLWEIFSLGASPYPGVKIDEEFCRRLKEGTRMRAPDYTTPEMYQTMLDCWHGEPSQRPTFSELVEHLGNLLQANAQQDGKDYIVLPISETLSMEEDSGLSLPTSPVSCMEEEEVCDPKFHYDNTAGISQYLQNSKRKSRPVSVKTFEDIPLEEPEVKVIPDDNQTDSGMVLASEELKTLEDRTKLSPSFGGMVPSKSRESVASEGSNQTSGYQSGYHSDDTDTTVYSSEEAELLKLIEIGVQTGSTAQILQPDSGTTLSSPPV
How it was run: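 HEK-293 cells with inducible human KDR were treated with compound for 1 h in DMEM (0.25% DMSO final), then lysed. Phospho-KDR was quantified by Meso Scale immunoassay, expressed as percent of control, and IC50 taken where a 4-parameter logistic fit crossed 50 POC.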

[4] = HEK-293 cells expressing Kif5b-RET, phospho-RET(Tyr1062)

N-terminal GST tagged recombinant human RET cytoplasmic domain (aa 658-end), wild type RET kinase, sequence (P07949 658-1114): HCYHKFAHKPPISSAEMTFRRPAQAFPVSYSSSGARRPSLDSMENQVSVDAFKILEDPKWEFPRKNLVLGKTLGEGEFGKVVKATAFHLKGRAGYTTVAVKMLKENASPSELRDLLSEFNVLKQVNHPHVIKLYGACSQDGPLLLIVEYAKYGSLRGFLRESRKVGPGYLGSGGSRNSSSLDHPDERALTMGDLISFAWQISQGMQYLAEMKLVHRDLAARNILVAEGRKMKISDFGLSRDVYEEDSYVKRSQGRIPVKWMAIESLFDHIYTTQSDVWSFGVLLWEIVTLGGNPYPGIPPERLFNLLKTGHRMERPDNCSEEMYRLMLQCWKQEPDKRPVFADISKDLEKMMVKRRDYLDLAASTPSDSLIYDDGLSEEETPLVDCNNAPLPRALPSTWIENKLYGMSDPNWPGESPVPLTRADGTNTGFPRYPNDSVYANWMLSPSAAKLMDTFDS

SMILES | IC50 [1] [nM] | IC50 [2, 4] [nM] | IC50 [3] [nM] | IC50 [2] [nM]
CC(C)C[C@@H](O)C(=O)N1CCN(c2ccc(-c3cc(-c4cnn(C)c4)cn4ncc(C#N)c34)cn2)CC1 [Example 53, (R)-4-(6-(4-(2-hydroxy-4-methylpentanoyl)piperazin-1-yl)pyridin-3-yl)-6-(1-methyl-1H-pyrazol-4-yl)pyrazolo[1,5-a]pyridine-3-carbonitrile] | 4.4 | 9.9 | 305 | –
CC(C)[C@H](O)C(=O)N1CCN(c2ccc(-c3cc(-c4cnn(C)c4)cn4ncc(C#N)c34)cn2)CC1 [Example 54, (S)-4-(6-(4-(2-hydroxy-3-methylbutanoyl)piperazin-1-yl)pyridin-3-yl)-6-(1-methyl-1H-pyrazol-4-yl)pyrazolo[1,5-a]pyridine-3-carbonitrile] | 12.4 | 66.6 | 1480 | –
C[C@@H](O)CC(=O)N1CCN(c2ccc(-c3cc(-c4cnn(C)c4)cn4ncc(C#N)c34)cn2)CC1 [Example 55, (R)-4-(6-(4-(3-hydroxybutanoyl)piperazin-1-yl)pyridin-3-yl)-6-(1-methyl-1H-pyrazol-4-yl)pyrazolo[1,5-a]pyridine-3-carbonitrile] | 10.4 | 54.9 | 923 | –
C[C@H](O)CC(=O)N1CCN(c2ccc(-c3cc(-c4cnn(C)c4)cn4ncc(C#N)c34)cn2)CC1 [Example 57, (S)-4-(6-(4-(3-hydroxybutanoyl)piperazin-1-yl)pyridin-3-yl)-6-(1-methyl-1H-pyrazol-4-yl)pyrazolo[1,5-a]pyridine-3-carbonitrile] | 12.7 | 48.6 | 1040 | –
Cn1cc(-c2cc(-c3ccc(N4CCN(C(=O)C(C)(F)F)CC4)nc3)c3c(C#N)cnn3c2)cn1 [Example 59, 4-(6-(4-(2,2-difluoropropanoyl)piperazin-1-yl)pyridin-3-yl)-6-(1-methyl-1H-pyrazol-4-yl)pyrazolo[1,5-a]pyridine-3-carbonitrile] | 16.3 | 26.6 | 554 | –
Cn1cc(-c2cc(-c3ccc(N4CCN(C(=O)[C@H](O)C(F)(F)F)CC4)nc3)c3c(C#N)cnn3c2)cn1 [Example 61, (S)-6-(1-methyl-1H-pyrazol-4-yl)-4-(6-(4-(3,3,3-trifluoro-2-hydroxypropanoyl)piperazin-1-yl)pyridin-3-yl)pyrazolo[1,5-a]pyridine-3-carbonitrile] | 5.5 | 5.5 | 148 | –
CCC(C)(O)CC(=O)N1CCN(c2ccc(-c3cc(-c4cnn(C)c4)cn4ncc(C#N)c34)cn2)CC1 (stereo not drawn) [Example 63, 4-(6-(4-(3-hydroxy-3-methylpentanoyl)piperazin-1-yl)pyridin-3-yl)-6-(1-methyl-1H-pyrazol-4-yl)pyrazolo[1,5-a]pyridine-3-carbonitrile] | 11.5 | 8.2 | 527 | –
CC(C)C(=O)N1CCN(c2ccc(-c3cc(-c4cnn(C)c4)cn4ncc(C#N)c34)cn2)CC1 [Example 66, 4-(6-(4-isobutyrylpiperazin-1-yl)pyridin-3-yl)-6-(1-methyl-1H-pyrazol-4-yl)pyrazolo[1,5-a]pyridine-3-carbonitrile] | 14.1 | 25.4 | 911 | –
CCC(=O)N1CCN(c2ccc(-c3cc(-c4cnn(C)c4)cn4ncc(C#N)c34)cn2)CC1 [Example 67, 6-(1-methyl-1H-pyrazol-4-yl)-4-(6-(4-propionylpiperazin-1-yl)pyridin-3-yl)pyrazolo[1,5-a]pyridine-3-carbonitrile] | 19.4 | 60.7 | 522 | –
CC(C)CC(=O)N1CCN(c2ccc(-c3cc(-c4cnn(C)c4)cn4ncc(C#N)c34)cn2)CC1 [Example 75, 6-(1-methyl-1H-pyrazol-4-yl)-4-(6-(4-(3-methylbutanoyl)piperazin-1-yl)pyridin-3-yl)pyrazolo[1,5-a]pyridine-3-carbonitrile] | 6.3 | 7 | 392 | –
Cn1cc(-c2cc(-c3ccc(N4CCN(C(=O)CC(C)(C)O)CC4)nc3)c3c(C#N)cnn3c2)cn1 [Example 79, 4-(6-(4-(3-hydroxy-3-methylbutanoyl)piperazin-1-yl)pyridin-3-yl)-6-(1-methyl-1H-pyrazol-4-yl)pyrazolo[1,5-a]pyridine-3-carbonitrile] | 14.5 | 31.3 | 1260 | –
CC[C@H](CO)NC(=O)N1CCN(c2ccc(-c3cc(-c4cnn(C)c4)cn4ncc(C#N)c34)cn2)CC1 [Example 96, (R)-4-(5-(3-cyano-6-(1-methyl-1H-pyrazol-4-yl)pyrazolo[1,5-a]pyridin-4-yl)pyridin-2-yl)-N-(1-hydroxybutan-2-yl)piperazine-1-carboxamide] | 6.3 | 51.9 | 1560 | –
Cn1cc(-c2cc(-c3ccc(N4CCN(C(=O)NC(C)(C)C)CC4)nc3)c3c(C#N)cnn3c2)cn1 [Example 128, N-(tert-butyl)-4-(5-(3-cyano-6-(1-methyl-1H-pyrazol-4-yl)pyrazolo[1,5-a]pyridin-4-yl)pyridin-2-yl)piperazine-1-carboxamide] | 11.6 | 11.1 | 555 | –
COCCN(C)C(=O)N1CCN(c2ccc(-c3cc(-c4cnn(C)c4)cn4ncc(C#N)c34)cn2)CC1 [Example 130, 4-(5-(3-cyano-6-(1-methyl-1H-pyrazol-4-yl)pyrazolo[1,5-a]pyridin-4-yl)pyridin-2-yl)-N-(2-methoxyethyl)-N-methylpiperazine-1-carboxamide 2,2,2-trifluoroacetate] | 20.8 | – | 2250 | 33
COCCNC(=O)N1CCN(c2ccc(-c3cc(-c4cnn(C)c4)cn4ncc(C#N)c34)cn2)CC1 [Example 135, 4-(5-(3-cyano-6-(1-methyl-1H-pyrazol-4-yl)pyrazolo[1,5-a]pyridin-4-yl)pyridin-2-yl)-N-(2-methoxyethyl)piperazine-1-carboxamide] | 12.8 | 35.4 | 1030 | –
CCN(C)C(=O)N1CCN(c2ccc(-c3cc(-c4cnn(C)c4)cn4ncc(C#N)c34)cn2)CC1 [Example 136, 4-(5-(3-cyano-6-(1-methyl-1H-pyrazol-4-yl)pyrazolo[1,5-a]pyridin-4-yl)pyridin-2-yl)-N-ethyl-N-methylpiperazine-1-carboxamide] | 9.1 | 11.9 | 1580 | –

Now from value to compound, other results behind:

IC50 [1] [nM] | IC50 [2, 4] [nM] | IC50 [3] [nM] | SMILES | IC50 [2] [nM]
16 | 35.5 | 896 | CC(C)C[C@H](O)C(=O)N1CCN(c2ccc(-c3cc(-c4cnn(C)c4)cn4ncc(C#N)c34)cn2)CC1 [Example 56, (S)-4-(6-(4-(2-hydroxy-4-methylpentanoyl)piperazin-1-yl)pyridin-3-yl)-6-(1-methyl-1H-pyrazol-4-yl)pyrazolo[1,5-a]pyridine-3-carbonitrile] | –
8.2 | 39.3 | 902 | Cn1cc(-c2cc(-c3ccc(N4CCN(C(=O)CC(C)(C)C)CC4)nc3)c3c(C#N)cnn3c2)cn1 [Example 65, 4-(6-(4-(3,3-dimethylbutanoyl)piperazin-1-yl)pyridin-3-yl)-6-(1-methyl-1H-pyrazol-4-yl)pyrazolo[1,5-a]pyridine-3-carbonitrile] | –
8.4 | 18.5 | 510 | CCCC(=O)N1CCN(c2ccc(-c3cc(-c4cnn(C)c4)cn4ncc(C#N)c34)cn2)CC1 [Example 70, 4-(6-(4-butyrylpiperazin-1-yl)pyridin-3-yl)-6-(1-methyl-1H-pyrazol-4-yl)pyrazolo[1,5-a]pyridine-3-carbonitrile] | –
7.6 | 6.5 | 771 | CC(C)[C@@H](O)C(=O)N1CCN(c2ccc(-c3cc(-c4cnn(C)c4)cn4ncc(C#N)c34)cn2)CC1 [Example 85, (R)-4-(6-(4-(2-hydroxy-3-methylbutanoyl)piperazin-1-yl)pyridin-3-yl)-6-(1-methyl-1H-pyrazol-4-yl)pyrazolo[1,5-a]pyridine-3-carbonitrile] | –
3.6 | 13 | 1600 | CCN(CC)C(=O)N1CCN(c2ccc(-c3cc(-c4cnn(C)c4)cn4ncc(C#N)c34)cn2)CC1 [Example 98, 4-(5-(3-cyano-6-(1-methyl-1H-pyrazol-4-yl)pyrazolo[1,5-a]pyridin-4-yl)pyridin-2-yl)-N,N-diethylpiperazine-1-carboxamide] | –
11.7 | 10.8 | 347 | CC(C)NC(=O)N1CCN(c2ccc(-c3cc(-c4cnn(C)c4)cn4ncc(C#N)c34)cn2)CC1 [Example 126, 4-(5-(3-cyano-6-(1-methyl-1H-pyrazol-4-yl)pyrazolo[1,5-a]pyridin-4-yl)pyridin-2-yl)-N-isopropylpiperazine-1-carboxamide] | –
4.3 | 1.7 | 147 | CC(C)CNC(=O)N1CCN(c2ccc(-c3cc(-c4cnn(C)c4)cn4ncc(C#N)c34)cn2)CC1 [Example 133, 4-(5-(3-cyano-6-(1-methyl-1H-pyrazol-4-yl)pyrazolo[1,5-a]pyridin-4-yl)pyridin-2-yl)-N-isobutylpiperazine-1-carboxamide] | –
5.5 | 11.5 | 320 | CCNC(=O)N1CCN(c2ccc(-c3cc(-c4cnn(C)c4)cn4ncc(C#N)c34)cn2)CC1 [Example 134, 4-(5-(3-cyano-6-(1-methyl-1H-pyrazol-4-yl)pyrazolo[1,5-a]pyridin-4-yl)pyridin-2-yl)-N-ethylpiperazine-1-carboxamide] | –
